Legend:
Format in all cases: functional
[1] = tested on: OVCAR-4; test: Growth inhibition of human OVCAR4 cells assessed as cell growth at 10^-8 M incubated for 48 hrs by sulforhodamine B assay relative to control; settings: OVCAR-4, 48 h, read-out: Activity
[2] = tested on: HCT-15; test: Growth inhibition of human HCT15 cells assessed as cell growth at 10^-8 M incubated for 48 hrs by sulforhodamine B assay relative to control; settings: HCT-15, 48 h, read-out: Activity
[3] = tested on: SF-539; test: Growth inhibition of human SF539 cells assessed as cell growth at 10^-8 M incubated for 48 hrs by sulforhodamine B assay relative to control; settings: SF-539, 48 h, read-out: Activity
[4] = tested on: OVCAR-3; test: Growth inhibition of human OVCAR3 cells assessed as cell growth at 10^-6 M incubated for 48 hrs by sulforhodamine B assay relative to control; settings: OVCAR-3, 48 h, read-out: Activity
[5] = tested on: HCT-15; test: Growth inhibition of human HCT15 cells assessed as cell growth at 10^-5 M incubated for 48 hrs by sulforhodamine B assay relative to control; settings: HCT-15, 48 h, read-out: Activity
[6] = tested on: UO-31; test: Growth inhibition of human UO31 cells assessed as cell growth at 10^-7 M incubated for 48 hrs by sulforhodamine B assay relative to control; settings: UO-31, 48 h, read-out: Activity
[7] = tested on: UO-31; test: Growth inhibition of human UO31 cells assessed as cell growth at 10^-4 M incubated for 48 hrs by sulforhodamine B assay relative to control; settings: UO-31, 48 h, read-out: Activity
[8] = tested on: 786-0; test: Growth inhibition of human 786-0 cells assessed as cell growth at 10^-4 M incubated for 48 hrs by sulforhodamine B assay relative to control; settings: 786-0, 48 h, read-out: Activity
[9] = tested on: PC-3; test: Growth inhibition of human PC3 cells assessed as cell growth at 10^-7 M incubated for 48 hrs by sulforhodamine B assay relative to control; settings: PC-3, 48 h, read-out: Activity
[10] = tested on: RPMI-8226; test: Growth inhibition of human RPMI8226 cells assessed as cell growth at 10^-6 M incubated for 48 hrs by sulforhodamine B assay relative to control; settings: RPMI-8226, 48 h, read-out: Activity
[11] = tested on: MCF7; test: Growth inhibition of human MCF7 cells assessed as cell growth at 10^-5 M incubated for 48 hrs by sulforhodamine B assay relative to control; settings: MCF7, 48 h, read-out: Activity
[12] = tested on: NCI-H23; test: Growth inhibition of human NCI-H23 cells assessed as cell growth at 10^-7 M incubated for 48 hrs by sulforhodamine B assay relative to control; settings: NCI-H23, 48 h, read-out: Activity
[13] = tested on: SNB-19; test: Growth inhibition of human SNB19 cells assessed as cell growth at 10^-7 M incubated for 48 hrs by sulforhodamine B assay relative to control; settings: SNB-19, 48 h, read-out: Activity
[14] = tested on: HCT-116; test: Growth inhibition of human HCT116 cells assessed as cell growth at 10^-8 M incubated for 48 hrs by sulforhodamine B assay relative to control; settings: HCT-116, 48 h, read-out: Activity
[15] = tested on: IGROV-1; test: Growth inhibition of human IGROV1 cells assessed as cell growth at 10^-4 M incubated for 48 hrs by sulforhodamine B assay relative to control; settings: IGROV-1, 48 h, read-out: Activity
[16] = tested on: LOX IMVI; test: Growth inhibition of human LOXIMVI cells assessed as cell growth at 10^-4 M incubated for 48 hrs by sulforhodamine B assay relative to control; settings: read-out: Activity
[17] = tested on: SN12C; test: Growth inhibition of human SN12C cells assessed as cell growth at 10^-5 M incubated for 48 hrs by sulforhodamine B assay relative to control; settings: read-out: Activity
[18] = tested on: NCI/ADR-RES; test: Growth inhibition of human NCI/ADR-RES cells assessed as cell growth at 10^-5 M incubated for 48 hrs by sulforhodamine B assay relative to control; settings: read-out: Activity
[19] = tested on: HOP-92; test: Growth inhibition of human HOP92 cells assessed as cell growth at 10^-8 M incubated for 48 hrs by sulforhodamine B assay relative to control; settings: HOP-92, 48 h, read-out: Activity
[20] = tested on: COLO 205; test: Growth inhibition of human COLO205 cells assessed as cell growth at 10^-6 M incubated for 48 hrs by sulforhodamine B assay relative to control; settings: COLO 205, 48 h, read-out: Activity
[21] = tested on: CCRF-CEM; test: Growth inhibition of human CCRF-CEM cells assessed as cell growth at 10^-5 M incubated for 48 hrs by sulforhodamine B assay relative to control; settings: read-out: Activity
[22] = tested on: U-251; test: Growth inhibition of human U251 cells assessed as cell growth at 10^-6 M incubated for 48 hrs by sulforhodamine B assay relative to control; settings: U-251, 48 h, read-out: Activity
[23] = tested on: U-251; test: Growth inhibition of human U251 cells assessed as cell growth at 10^-4 M incubated for 48 hrs by sulforhodamine B assay relative to control; settings: U-251, 48 h, read-out: Activity
[24] = tested on: NCI-H23; test: Growth inhibition of human NCI-H23 cells assessed as cell growth at 10^-4 M incubated for 48 hrs by sulforhodamine B assay relative to control; settings: NCI-H23, 48 h, read-out: Activity
[25] = tested on: UACC-257; test: Growth inhibition of human UACC257 cells assessed as cell growth at 10^-6 M incubated for 48 hrs by sulforhodamine B assay relative to control; settings: UACC-257, 48 h, read-out: Activity
[26] = tested on: SF-539; test: Growth inhibition of human SF539 cells assessed as cell growth at 10^-7 M incubated for 48 hrs by sulforhodamine B assay relative to control; settings: SF-539, 48 h, read-out: Activity
[27] = tested on: NCI-H460; test: Growth inhibition of human NCI-H460 cells assessed as cell growth at 10^-7 M incubated for 48 hrs by sulforhodamine B assay relative to control; settings: NCI-H460, 48 h, read-out: Activity
[28] = tested on: BT-549; test: Growth inhibition of human BT549 cells assessed as cell growth at 10^-8 M incubated for 48 hrs by sulforhodamine B assay relative to control; settings: BT-549, 48 h, read-out: Activity
[29] = tested on: EKVX; test: Growth inhibition of human EKVX cells assessed as cell growth at 10^-7 M incubated for 48 hrs by sulforhodamine B assay relative to control; settings: read-out: Activity
[30] = tested on: OVCAR-3; test: Growth inhibition of human OVCAR3 cells assessed as cell growth at 10^-5 M incubated for 48 hrs by sulforhodamine B assay relative to control; settings: OVCAR-3, 48 h, read-out: Activity
[31] = tested on: MDA-MB-468; test: Growth inhibition of human MDA-MB-468 cells assessed as cell growth at 10^-7 M incubated for 48 hrs by sulforhodamine B assay relative to control; settings: MDA-MB-468, 48 h, read-out: Activity
[32] = tested on: RXF 393; test: Growth inhibition of human RXF393 cells assessed as cell growth at 10^-6 M incubated for 48 hrs by sulforhodamine B assay relative to control; settings: RXF 393, 48 h, read-out: Activity
[33] = tested on: NCI-H226; test: Growth inhibition of human NCI-H226 cells assessed as cell growth at 10^-8 M incubated for 48 hrs by sulforhodamine B assay relative to control; settings: NCI-H226, 48 h, read-out: Activity
[34] = tested on: ACHN; test: Growth inhibition of human ACHN cells assessed as cell growth at 10^-5 M incubated for 48 hrs by sulforhodamine B assay relative to control; settings: read-out: Activity

CCCCOc1nc2ccccc2cc1C1CNC(=O)c2ccccc2N1 (centres undefined)
growth at 0.01 µM [1]: 92%
growth at 0.01 µM [2]: 95%
growth at 0.01 µM [3]: 89%
growth at 1 µM [4]: 64%
growth at 10 µM [5]: 3%
growth at 0.1 µM [6]: 86%
growth at 100 µM [7]: -67%
growth at 100 µM [8]: -76%
growth at 0.1 µM [9]: 97%
growth at 1 µM [10]: 84%
growth at 10 µM [11]: 11%
growth at 0.1 µM [12]: 95%
growth at 0.1 µM [13]: 95%
growth at 0.01 µM [14]: 101%
growth at 100 µM [15]: -51%
growth at 100 µM [16]: -81%
growth at 10 µM [17]: 19%
growth at 10 µM [18]: -15%
growth at 0.01 µM [19]: 76%
growth at 1 µM [20]: 98%
growth at 10 µM [21]: 11%
growth at 1 µM [22]: 85%
growth at 100 µM [23]: -77%
growth at 100 µM [24]: -26%
growth at 1 µM [25]: 70%
growth at 0.1 µM [26]: 93%
growth at 0.1 µM [27]: 102%
growth at 0.01 µM [28]: 105%
growth at 0.1 µM [29]: 97%
growth at 10 µM [30]: -53%
growth at 0.1 µM [31]: 93%
growth at 1 µM [32]: 80%
growth at 0.01 µM [33]: 97%
growth at 10 µM [34]: 22%
